Source: ChEMBL document CHEMBL4325854, “Synthetic small molecules as anti-biofilm agents in the struggle against antibiotic resistance” (Eur J Med Chem, 2019)

What was measured:
Pseudomonas aeruginosa [1] = assay: Antibiofilm activity against Pseudomonas aeruginosa PA14 assessed as inhibition of biofilm dispersion; assay type: functional, organism-based
[2] = test system: Bordetella bronchiseptica; assay: Antibiofilm activity against Bordetella bronchiseptica RB50 assessed as inhibition of biofilm dispersion; assay type: functional, organism-based
[3] = test system: Staphylococcus epidermidis; assay: Antibiofilm activity against Staphylococcus epidermidis at 25 ug/ml relative to control; assay type: functional
Staphylococcus aureus [4] = assay: Antibiofilm activity against Staphylococcus aureus ATCC 29213 at 25 ug/ml relative to control; assay type: functional
Staphylococcus aureus [5] = assay: Antibiofilm activity against methicillin-resistant Staphylococcus aureus; assay type: functional, organism-based; conditions: Staphylococcus aureus
Acinetobacter baumannii [6] = assay: Antibiofilm activity against Acinetobacter baumannii; assay type: functional, organism-based
[7] = test system: Staphylococcus epidermidis; assay: Antibiofilm activity against Staphylococcus epidermidis DSM 3269 at 1.5 ug/ml relative to control; assay type: functional
Staphylococcus aureus [8] = assay: Antibiofilm activity against Staphylococcus aureus isolate 657 at 1.5 ug/ml relative to control; assay type: functional
[9] = test system: Staphylococcus epidermidis; assay: Antibiofilm activity against Staphylococcus epidermidis RP62A at 1.5 ug/ml relative to control; assay type: functional
Staphylococcus aureus [10] = assay: Antibiofilm activity against Staphylococcus aureus ATCC 29213 at 1.5 ug/ml relative to control; assay type: functional
Staphylococcus aureus [11] = assay: Antibiofilm activity against Staphylococcus aureus isolate 702 at 1.5 ug/ml relative to control; assay type: functional
Staphylococcus aureus [12] = assay: Antibiofilm activity against Staphylococcus aureus ATCC 25923 at 1.5 ug/ml relative to control; assay type: functional
Acinetobacter baumannii [13] = assay: Antibiofilm activity against Acinetobacter baumannii preformed biofilms; assay type: functional, organism-based
Staphylococcus aureus [14] = assay: Antibiofilm activity against methicillin-resistant Staphylococcus aureus BAA-1685; assay type: functional, organism-based
Staphylococcus aureus [15] = assay: Antibiofilm activity against methicillin-resistant Staphylococcus aureus ATCC 43300; assay type: functional, organism-based
Staphylococcus aureus [16] = assay: Antibiofilm activity against methicillin-resistant Staphylococcus aureus BAA-1770; assay type: functional, organism-based
Staphylococcus aureus [17] = assay: Antibiofilm activity against Staphylococcus aureus at 100 uM relative to control; assay type: functional
Sortase A = molecular target: T1, Sortase A (Staphylococcus aureus, UniProt Q9S446); assay: Inhibition of Staphylococcus aureus SrtA
T1 sequence (Q9S446 whole entry): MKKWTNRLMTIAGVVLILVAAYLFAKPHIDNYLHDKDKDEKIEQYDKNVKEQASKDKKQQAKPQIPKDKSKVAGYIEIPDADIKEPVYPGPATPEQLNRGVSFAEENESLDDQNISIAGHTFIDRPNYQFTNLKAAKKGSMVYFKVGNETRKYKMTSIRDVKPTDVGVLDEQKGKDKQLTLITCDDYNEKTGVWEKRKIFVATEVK

Staphylococcus aureus [18] = assay: Antibiofilm activity against Staphylococcus aureus BAA-1026; assay type: functional
Enterococcus faecalis = assay: Antibiofilm activity against Enterococcus faecalis ATCC 29212; assay type: functional
Pseudomonas aeruginosa [19] = assay: Antibiofilm activity against Pseudomonas aeruginosa PAO1 assessed as inhibition of biofilm dispersion; assay type: functional, organism-based

SMILES | Activity [7] [%] | Activity (Staphylococcus aureus [8]) [%] | Activity [9] [%] | Activity (Staphylococcus aureus [10]) [%] | Activity (Staphylococcus aureus [11]) [%] | Activity (Staphylococcus aureus [12]) [%] | other results
Nc1nc(CCCNC(=O)c2cc(Br)c(Br)n2-c2ccc(Br)cc2)c[nH]1 |  |  |  |  |  |  | IC50 (Pseudomonas aeruginosa [1]): 16.4 µM; IC50 [2]: 29.3 µM
Nc1nc(CCCNC(=O)c2cc(Br)c(Br)n2CCc2ccccc2)c[nH]1 |  |  |  |  |  |  | IC50 (Pseudomonas aeruginosa [1]): 22.9 µM; IC50 [2]: 22.5 µM
Cc1nn(C)c([N-]C(=O)c2ccc(Cl)cc2)c1[N+]#N |  |  |  |  |  |  | Activity [3]: 69 - 96%; Activity (Staphylococcus aureus [4]): 69 - 96%
Cc1nn(C)c([N-]C(=O)c2ccc(Cl)cc2Cl)c1[N+]#N |  |  |  |  |  |  | Activity [3]: 69 - 96%; Activity (Staphylococcus aureus [4]): 69 - 96%
CCCCCc1ccc(C(=O)NCCn2cc(CCCCCc3c[nH]c(N)n3)nn2)cc1 |  |  |  |  |  |  | IC50 (Staphylococcus aureus [5]): 15.2 to 34 µM; IC50 (Acinetobacter baumannii [6]): 15.2 to 34 µM
O=C(c1cc(Br)c(F)[nH]1)c1cc(Cl)cc(Cl)c1O | >60 | >60 | >60 | >60 | >60 | >60 | 
O=C(c1cc(Br)cc(Br)c1O)c1[nH]c(Br)c(Br)c1Br | >60 | >60 | >60 | >60 | >60 | >60 | 
O=C(c1cc(Br)ccc1O)c1[nH]c(Br)c(Cl)c1Br | >60 | >60 | >60 | >60 | >60 | >60 | 
O=C(c1cc(Br)ccc1O)c1[nH]c(Br)c(Br)c1Br | >60 | >60 | >60 | >60 | >60 | >60 | 
O=C(c1cc(Br)ccc1O)c1[nH]c(Cl)c(Br)c1Br | >60 | >60 | >60 | >60 | >60 | >60 | 
O=C(c1cc(Cl)cc(Cl)c1O)c1[nH]c(Br)c(Br)c1Br | >60 | >60 | >60 | >60 | >60 | >60 | 
C/C(=C\c1cccc2ccccc12)Cn1cc(CCCCCc2c[nH]c(N)n2)nn1 |  |  |  |  |  |  | EC50 (Staphylococcus aureus [5]): 4.5 to 9.8 µM; EC50 (Acinetobacter baumannii [13]): 44.7 to 59.6 µM
O=C(c1cc(Br)ccc1O)c1[nH]c(Cl)c(Cl)c1Br | >60 | >60 | >60 | >60 | >60 | >60 | 
O=C(c1cc(Cl)cc(Cl)c1O)c1[nH]c(Cl)c(Cl)c1Cl | >60 | >60 | >60 | >60 | >60 | >60 | 
CCCCCc1ccc(C(=O)NCCn2cc(CCCCCc3c[nH]c(NCc4ccc(CCCC)cc4)n3)nn2)cc1 |  |  |  |  |  |  | IC50 (Staphylococcus aureus [14]): 5.5 µM; IC50 (Staphylococcus aureus [15]): 4.4 µM; IC50 (Staphylococcus aureus [16]): 5.9 µM
CCCCOc1ccc(/C=C(\C)Cn2cc(CCCCCc3c[nH]c(N)n3)nn2)cc1 |  |  |  |  |  |  | EC50 (Staphylococcus aureus [5]): 4.5 to 9.8 µM; EC50 (Acinetobacter baumannii [13]): 44.7 to 59.6 µM
CC(=O)/C(=N\Nc1cccc(Cl)c1)C(=O)O |  |  |  |  |  |  | Activity (Staphylococcus aureus [17]): 39.2 - 68.3%; IC50 (Sortase A): 50 to 92 µM
CCCCc1ccc(C(=O)NCCn2cc(CCCCc3[nH]c(N)nc3-c3ccoc3)nn2)cc1 |  |  |  |  |  |  | IC50 (Staphylococcus aureus [5]): 7.2 µM
CCCCCCCCCCCCCCNC(=O)Cn1cc(C[C@@]23CNC[C@@H]2Nc2ccccc23)nn1 |  |  |  |  |  |  | IC50 (Staphylococcus aureus [5]): 5.4 µM
N#Cc1ccc(-c2csc(-c3ccc(-c4csc(-c5ccccc5)n4)cc3)n2)cc1 |  |  |  |  |  |  | MBEC (Staphylococcus aureus [18]): 250 µg/mL; MBEC (Enterococcus faecalis): 2 µg/mL
COc1cc(N/N=C(\C(C)=O)C(=O)O)cc(OC)c1OC |  |  |  |  |  |  | Activity (Staphylococcus aureus [17]): 39.2 - 68.3%; IC50 (Sortase A): 50 to 92 µM
O=[N+]([O-])c1ccc(-c2csc(-c3ccc(-c4csc(-c5ccccc5)n4)cc3)n2)cc1 |  |  |  |  |  |  | MBEC (Staphylococcus aureus [18]): >1000 µg/mL; MBEC (Enterococcus faecalis): 2 µg/mL
CCCCCCCCCCNC(=O)CCCc1c[nH]c(N)n1 |  |  |  |  |  |  | IC50 (Pseudomonas aeruginosa [1]): 6 µM; IC50 (Pseudomonas aeruginosa [19]): 8 µM
Clc1ccc(-c2csc(-c3ccc(-c4csc(-c5ccccc5)n4)cc3)n2)cc1 |  |  |  |  |  |  | MBEC (Staphylococcus aureus [18]): >1000 µg/mL; MBEC (Enterococcus faecalis): 16 µg/mL
CC(=O)/C(=N\Nc1ccc([N+](=O)[O-])cc1)C(=O)O |  |  |  |  |  |  | Activity (Staphylococcus aureus [17]): 39.2 - 68.3%; IC50 (Sortase A): 50 to 92 µM
